US20100080757A1, “METHOD OF DETECTING ABNORMAL TISSUE” (priority 2005, published 2010)

How the values were obtained:
normal prostate vessels = experiment: DCE MRI of the normal prostate with vasoactive drugs; format: in vivo, person
Method: A person with no history of prostate cancer and normal PSA, volunteered for multiple DCE MRI exams of the prostate to evaluate vasoactive modulation of the normal blood flow. Three separate examinations were performed several weeks apart. The studies were performed on a Siemens 1.5T Symphony scanner. The DCE MRI examination included, Siemens's tfiperf, (inversion fisp) sequence. TR=3000, TE=1.27, TI=400 flip angle=50. Gadolinium Veresetamide […], injection at 2 cc/sec for a total of 20 cc. Images were obtained every 3 seconds for a total period of 5 minutes and every minute thereafter for 15 minutes.
All three studies were performed with identical MRI sequences and parameters. The first study was performed without a vasoactive drug but the second and third study were repeated with administration of a vasoactive drug, silfenadil or pseudoephedrine. […] The third DCE MRI was performed identical to the second study with the oral administration of 25 mg of silfenadil one hour before the study, and the administration of 60 mg of pseudoephedrine 20 minutes preceding the gadolinium injection. The absorption rate of each drug is quite predictable according to the literature so the initial part of the study performed before the pseudoephedrine was vasodilated and the subsequent study had vasodilator combined with a vasoconstrictor.
Data analysis was performed using ANALYZE data management software (Analyze Direct, Inc., Lenexa, Kans., 66215, USA) and Excel (Microsoft, Seattle, Wash.).
Data graphs were normalized to the blood flow of the iliac artery. The data was acquired during the five minute period following intravenous gadolinium injection and thereby provides a semiquantitative assessment of blood flow characteristics, see below data discussion.

lung cancer = experiment: FDG PET of lung cancer before and after oral pseudoephedrine; format: in vivo; details: after oral pseudoephedrine; baseline SUV 4.8
Description: FIGS. 9(a-b) are baseline CT (A) and corresponding PET (B) images of lung cancer. FIGS. 9(c-d) are images illustrating Tumor after oral pseudoephedrine. The tumor has not changed size on CT but has increased PET signal. SUV increased from 4.8 to 8.8, presumably due to increased blood flow to tumor and capture of FDG.

hepatic artery = experiment: Hepatic artery blood flow after intravenous acetazolamide; format: in vivo; details: 100 mg/kg intravenously; for Blood flow in the hepatic artery: before about 2.8 ml/min
Description: The amount of vasoactive agent administered to the subject to cause a noticeable increase or decrease in blood flow to the tissue of interest will depend on the specific agent administered to the subject.

VX2 tumor = experiment: Functional CT perfusion before and after acetazolamide, tumor peripheral rim; format: in vivo, New Zealand White rabbits; details: peripheral rim of untreated tumor, day 28; acetazolamide 50 mg/kg IV; mean±SE
Description: (§1) All animal procedures were approved by the Institutional Animal Care and Use Committee at Case Western Reserve University. The VX2 tumor, a xenograft hepatoma model used frequently in radiological studies, was donated by S, Nahum Goldberg MD, (Beth Israel Medical Center, Boston, Mass.). Tumor was initiated in livers of 5 male New Zealand White rabbits weighing 3 kg (Covance, Princeton, N.J.) using methods described previously. The tumor was first propagated in the thigh of a donor rabbit, where a suspension of tumor cells was injected intramuscularly into one thigh. The tumor was grown until the palpated size reached approximately 1 cm^3 and was harvested from anesthetized animals using sterile techniques. Pieces of the tumor (4 mm^3) were cut, placed in 10% DMSO in pure calf's serum, and stored in liquid nitrogen.
(§2) For implantation in the liver, frozen tumor was rapidly thawed and washed. Rabbits were anesthetized using a combination of xylazine (5 mg/kg), ketamine (50 mg/kg), acepromazine (2 mg/kg) and atropine (0.2 mg/kg). The abdomen was shaved and cleaned, and the liver was exposed. A piece of tumor was then inserted into the liver parenchyma and the incisions were closed. During recovery, all animals received Buprenex (0.5 mg/kg) for pain management and a subcutaneous injection of 25 ml of 0.9% saline. Additional Buprenex and saline were given as needed.
(§3) Liver perfusion maps were created 28 days after initiation of the tumor by tracking contrast enhancement on eight sequential CT images (acquired on the Mx8000 IDT, Philips Medical scanner) before and after IV injection of acetazolamide. During each CT exam, first an unenhanced baseline scan was carried out. […]
(§4) A CT perfusion software package available from the scanner manufacturer was used for all perfusion measurements. […] Arterial and portal perfusion were calculated by measuring the slope of the time-density curve before (arterial) and after (venous) peak splenic enhancement and normalizing by the vascular input. A mean percent change in perfusion before and after CAI injection was calculated. […]

normal liver = experiment: Functional CT perfusion before and after acetazolamide, normal liver; format: in vivo, New Zealand White rabbits; details: acetazolamide 50 mg/kg IV, mean±SE
Description: as §1, §2, §3, §4

small hepatoma = experiment: MRI perfusion study, baseline and AZ enhanced; format: in vivo
Description: FIGS. 7(a-b) are plots illustrating MRI perfusion study with the solid line showing flow in a small hepatoma and the dotted line showing flow in the normal parenchyma. FIG. 7a illustrates a baseline perfusion study showing quicker and higher enhancement of tumor vs normal liver.

[1] = tested on: inflammatory pseudotumor (benign liver lesion); experiment: Contrast-enhanced CT before and after acetazolamide in a biopsy patient; format: in vivo, Humans
Method: FIG. 10 is a plot illustrating CT perfusion analysis of a biopsy proven inflammatory pseudotumor before and after acetazolamide (AZ) administration (AZ 250 mg+50 mL Optiray 320).
Several preliminary studies have been carried out using a protocol approved by the Institutional Review Board (IRB) of University Hospitals of Cleveland (FIGS. 10-11). One patient undergoing routine biopsy was screened using a pre- and post-acetazolamide injection contrast-enhanced CT scans. Following the scans, a biopsy of the tissue was taken and sent for routine histological analysis. On the image data, standard region of interest (ROI) analysis was used to obtain signal intensity values (in Hounsfield units or HU) over 600 seconds in normal liver and the mass. […] Our general hypothesis is that normal vessels either in normal liver or benign lesions respond to the vasodilatation, so the decrease in conspicuity results from dilatation of both vessel sites. […] This was confirmed by histological diagnosis. A patient with a suspected recurrent tumor underwent a similar protocol as above. Again, on the baseline scan, the lesion enhances less than the normal liver. […] Instead of creating a “steal”, the flow increases flow in the lesion indicating it has normal vessels consistent with benign inflammation. Again, the results were confirmed with CT-guided biopsy.

[2] = tested on: suspected recurrent tumor in liver; experiment: MR of suspected recurrent liver tumor without and after Diamox; format: in vivo, Humans; details: post Diamox scan vs baseline scan; lesion confirmed benign inflammation
Description: FIGS. 11(a-c) are MR of suspected recurrent tumor in liver without (A) and after (B) vasodilator (Diamox), and image-guided biopsy confirmation (C). In A and B, the solid line corresponds to the lesion and the “dashed” line corresponds to the normal liver.
Several preliminary studies have been carried out using a protocol approved by the Institutional Review Board (IRB) of University Hospitals of Cleveland (FIGS. 10-11). One patient undergoing routine biopsy was screened using a pre- and post-acetazolamide injection contrast-enhanced CT scans. Following the scans, a biopsy of the tissue was taken and sent for routine histological analysis. On the image data, standard region of interest (ROI) analysis was used to obtain signal intensity values (in Hounsfield units or HU) over 600 seconds in normal liver and the mass. […] Our general hypothesis is that normal vessels either in normal liver or benign lesions respond to the vasodilatation, so the decrease in conspicuity results from dilatation of both vessel sites. […] This was confirmed by histological diagnosis. A patient with a suspected recurrent tumor underwent a similar protocol as above. Again, on the baseline scan, the lesion enhances less than the normal liver. […] Instead of creating a “steal”, the flow increases flow in the lesion indicating it has normal vessels consistent with benign inflammation. […]

liver = details: Taki et al.; without systemic effects; cited from earlier work
kidney = details: Taki et al.; without systemic effects; cited from earlier work
woodchuck hepatoma = experiment: FDG PET uptake curves with and without phenylephrine; format: in vivo; details: PET with FDG and phenylephrine vs baseline FDG alone
Description: FIG. 8 is a plot illustrating FDG uptake curves in woodchuck hepatoma from two PET studies.

[3] = between 21 seconds and 72 seconds, 25 mg oral one hour prior
[4] = gadolinium after sildenafil, FIG. 13 legend

CCCc1nn(C)c2c(=O)[nH]c(-c3cc(S(=O)(=O)N4CCN(C)CC4)ccc3OCC)nc12 [sildenafil]
Enhancement of the prostate gland on MRI image (normal prostate vessels; after sildenafil 50 mg and gadolinium, vs study without Viagra (FIG. 16)): greater enhancement of the gland | Increase of lateral lobe enhancement vs baseline study (normal prostate vessels; [3]): 78% | Increase of medial lobe enhancement vs baseline study (normal prostate vessels; [3]): 73% | Enhancement greater than the enhanced undilated study, medial lobe (normal prostate vessels; [4]): 78% | Maximum enhancement greater than the enhanced, undilated study, lateral lobe (normal prostate vessels; [4]): 73% | Increase of enhancement curve vs baseline enhancement curve (normal prostate vessels; throughout the entire scan period of 5 minutes (300 seconds), 25 mg oral one hour prior): more than 70%

CN[C@@H](C)[C@@H](O)c1ccccc1 [pseudoephedrine]
SUV (FDG PET signal of tumor) (lung cancer): 8.8 | Reduction in the enhancement (normal prostate vessels; after 14 minutes, pseudoephedrine 60 mg oral on top of silfenadil 25 mg oral): about 20% | Intensity in the equilibration phase (normal prostate vessels; at 14 minutes, pseudoephedrine 60 mg oral after Sildenafil 25 mg oral): definite decrease in intensity

CC(=O)Nc1nnc(S(N)(=O)=O)s1 [acetazolamide]
Increase in the blood flow through the hepatic artery (hepatic artery): about 18% | Blood flow in the hepatic artery (hepatic artery; after about 10 minutes): about 3.1 ml/min | Blood flow in the hepatic artery (hepatic artery; after about 20 minutes): about 3.3 ml/min | Change in arterial perfusion (VX2 tumor): −31±9% | Change in total perfusion (VX2 tumor): −30±7% | Change in venous perfusion (VX2 tumor): −20±12% | Change in arterial perfusion (normal liver): −3±33% | Change in total perfusion (normal liver): 41±18% | Change in venous perfusion (normal liver): 31±18% | Enhancement of tumor vs normal liver (small hepatoma): decrease in enhancement of the tumor compared to the normal liver | Conspicuity ([1]; after AZ injection (AZ 250 mg), 32 HU before, benign lesion): 15 HU | Blood flow / signal intensity ([1]; post-acetazolamide contrast-enhanced CT, normal liver and mass): increases in the normal liver and in the mass | Enhancement of the lesion [2]: increases relative to the normal liver | Increase in blood flow to the liver (liver): 75+/−36% | Increase in blood flow to the kidney (kidney): 33+/−11%

CNC[C@H](O)c1cccc(O)c1 [phenylephrine]
FDG uptake in lesion (woodchuck hepatoma): increased uptake
